According to patent US20060247320A1, “Compounds for inhibiting KSP kinesin activity” (priority 2005, published 2006):

target: T1, KSP motor domain (Homo sapiens, UniProt P52732); assay: biochemical; details: IC50 (nM), KSP inhibitory activity, end-point assay; class symbols (Table 1)
T1 sequence (P52732 18-359 limits assumed): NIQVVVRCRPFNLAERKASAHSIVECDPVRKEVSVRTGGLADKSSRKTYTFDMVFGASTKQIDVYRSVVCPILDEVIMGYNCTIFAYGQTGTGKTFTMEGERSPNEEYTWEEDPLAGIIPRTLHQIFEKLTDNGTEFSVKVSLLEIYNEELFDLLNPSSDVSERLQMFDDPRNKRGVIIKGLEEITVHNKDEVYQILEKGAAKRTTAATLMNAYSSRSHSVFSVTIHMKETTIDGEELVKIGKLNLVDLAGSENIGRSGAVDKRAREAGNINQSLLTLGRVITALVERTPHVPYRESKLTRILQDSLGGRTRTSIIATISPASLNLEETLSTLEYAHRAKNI

Row | SMILES | IC50
1 | C[Si](C)(C)C1CCc2nc3sc(C(N)=O)cc3cc2C1 (single isomer, unassigned) [Example 189, 5,6,8-Tetrahydro-6-(Trimethylsilyl)thieno[2,3-b]quinoline-2-Carboxamide] | < 100 nM
2 | C[Si](C)(C)C1CCc2nc3sc(C(=O)NCCN)cc3cc2C1 (stereo not shown) [Example 191, N-(2-Aminoethyl) 5,6,7,8-Tetrahydro-6-(Trimethylsilyl)thieno[2,3-b]quinoline-2-Carboxamide] | < 100 nM

same assay, conditions: IC50 (nM), exact IC50 values, end-point assay (Table 2)

Row | SMILES | IC50
3 | C[Si](C)(C)C1CCc2nc3sc(C(N)=O)cc3cc2C1 (single isomer, unassigned) [Example 189, 5,6,8-Tetrahydro-6-(Trimethylsilyl)thieno[2,3-b]quinoline-2-Carboxamide] | 50 nM
4 | C[Si](C)(C)C1CCc2nc3sc(C(=O)NCCN)cc3cc2C1 (stereo not shown) [Example 191, N-(2-Aminoethyl) 5,6,7,8-Tetrahydro-6-(Trimethylsilyl)thieno[2,3-b]quinoline-2-Carboxamide] | 10 nM

same assay, conditions: KSP inhibitory activity, end-point assay; class symbols (Table 1)

Row | SMILES | IC50 (nM)
5 | CC(C)(C)C1CCc2nc3sc(NC(N)=O)cc3cc2C1 (stereo not shown) [Example 125, (6-tert-Butyl-5,6,7,8-tetrahydrothieno[2,3-b]quinolin-2-yl)urea] | B/C

same assay, conditions: KSP inhibitory activity, end-point assay; class symbols (Table 1); read-out: IC50

Row | SMILES | IC50
6 | CC(C)(C)C1CCc2nc3sc(C(=O)NCCN4CCCC4)cc3cc2C1 (stereo not shown) [Example 199, 6-(1,1-Dimethylethyl)-5,6,7,8-tetrahydro-N-[2-(1-Pyrrolidinyl)ethyl]thieno[2,3-b]quinoline-2-Carboxamide] | 1000 to 10000 nM
7 | CC(C)(C)[C@@H]1CCc2nc3sc(C(=O)N[C@H](CN)c4cccc(NC(=O)c5ccon5)c4)cc3cc2C1 [Example 232] | < 100 nM
8 | N#Cc1sc2nc3c(cc2c1N)CC(C1CCCC1)CC3 (stereo not shown) [Example 22] | > 10000 nM
9 | CC[C@@H](C#N)NC(=O)c1cc2cc3c(nc2s1)CCC(C(C)(C)C)C3 (stereo partly drawn) [Example 166, 6-tert-Butyl-5,6,7,8-tetrahydrothieno[2,3-b]quinoline-2-carboxylic acid [(1S)-1-cyanopropyl)amide] | > 10000 nM
10 | CC(C)(C)C1CCc2nc3sc(C(N)=O)cc3cc2C1 (single isomer, unassigned; (-)) [Example 67, (−)-6-(1,1-dimethylethyl)-5,6,7,8-tetrahydrothieno[2,3-b]quinoline-2-carboxamide] | 100 to 1000 nM
11 | CC(C)(C)CC(C)(C)C1CCc2nc3sc(C#N)c(N)c3cc2C1 (stereo not shown) [Example 11] | > 10000 nM
12 | CC(C)(C)C1CCc2nc3sc(C(N)=O)c(N)c3cc2C1 (stereo not shown) [Example 118, 3-Amino-6-tert-butyl-5,6,7,8-tetrahydrothieno[2,3-b]quinoline-2-carboxylic acid amide] | 1000 to 10000 nM
13 | CC(C)(C)C1CCc2nc3sc(C(=O)N[C@H](CO)c4ccccc4)cc3cc2C1 (stereo partly shown) [Example 160] | 1000 to 10000 nM
14 | CC(C)(C)C1CCc2nc3sc(C(=O)Nc4ccc(O)cc4N)cc3cc2C1 (stereo not shown) [Example 226G] | 100 to 1000 nM
15 | CC(C)(C)C1CCc2nc3sc(S(C)(=O)=O)c(N)c3cc2C1 (stereo not shown) [Example 120, 6-tert-Butyl-2-methanesulfonyl-5,6,7,8-tetrahydrothieno[2,3-b]quinolin-3-ylamine] | 100 to 1000 nM
16 | CC(C)(C)C1CCc2cc3cc(C#N)sc3nc2CC1 (stereo not shown) [Example 61] | 1000 to 10000 nM
17 | CC(C)(C)C1CCc2nc3sc(C(=O)NCC#N)cc3cc2C1 (stereo not shown) [Example 167, 6-tert-Butyl-5,6,7,8-tetrahydrothieno[2,3-b]quinoline-2-carboxylic acid cyanomethyl-amide] | 100 to 1000 nM
18 | N#Cc1sc2nc3c(cc2c1N)C/C(=C/C1CC1)CC3 [Example 37] | > 10000 nM
19 | CC(C)(C)OC(=O)N1CCc2nc3sc(C#N)c(N)c3cc2C1 [Example 42] | > 10000 nM
20 | CC(C)(C)C1CCc2nc3sc(NC(N)=O)nc3cc2C1 (stereo not shown) [Example 132, (7-tert-Butyl-5,6,7,8-tetrahydrothiazolo[5,4-b]quinolin-2-yl)-urea] | 1000 to 10000 nM
21 | CCC(CN)NC(=O)c1cc2cc3c(nc2s1)CCC(C(C)(C)C)C3 (stereo not shown) [Example 177] | < 100 nM
22 | CC(C)(C)[C@@H]1CCc2nc3sc(C(=O)N[C@H](CN)c4cccc(NC(=O)c5nsnc5N)c4)cc3cc2C1 [Example 255] | < 100 nM
23 | CC(C)(C)C1CCc2nc3c(cc2C1)c(N)c(C#N)[s+]3[O-] (stereo not shown) [Example 126, 3-Amino-6-tert-butyl-1-oxo-5,6,7,8-tetrahydro-1H-1λ^4-thieno[2,3-b]quinoline-2-carbonitrile] | 1000 to 10000 nM
24 | CC(C)(C)[C@@H]1CCc2nc3sc(C(=O)N[C@H](CN)c4ccc(NC(=O)c5cscn5)cc4)cc3cc2C1 [Example 270] | < 100 nM

Row | SMILES | IC50
25 | CC(C)(C)C1CCc2nc3sc(N)nc3cc2C1 (stereo not shown) [Example 133, 7-tert-Butyl-5,6,7,8-tetrahydrothiazolo[5,4-b]quinolin-2-ylamine] | > 10000 nM
26 | CCC(C)(C)C1CCc2nc3sc(C#N)cc3cc2C1 (stereo not shown) [Example 59] | < 100 nM
27 | CC(C)(C)[C@@H]1CCc2nc3sc(C(=O)N[C@H](CN)c4cccc(NC(=O)c5ccn(-c6ccccc6)n5)c4)cc3cc2C1 [Example 241] | < 100 nM
28 | CC(C)(C)C1CCc2nc3sc(C(=O)N[C@@H]4CCC[C@H]4O)cc3cc2C1 (stereo partly shown) [Example 85] | 1000 to 10000 nM
29 | Cc1cnc(C(=O)Nc2cccc([C@@H](CN)NC(=O)c3cc4cc5c(nc4s3)CC[C@@H](C(C)(C)C)C5)c2)cn1 [Example 259] | < 100 nM
30 | CCCC(C)(C)C1CCc2nc3sc(C#N)c(N)c3cc2C1 (stereo not shown) [Example 10] | 100 to 1000 nM
31 | CCC(C)(C)C1CCc2nc3sc(C#N)cc3c(Cl)c2C1 (stereo not shown) [Example 113] | 1000 to 10000 nM
32 | CC(C)(C)C1CCc2nc3sc(C#N)cc3cc2C1 (racemic) [Example 58, 6-tert-butyl-5,6,7,8-tetrahydrothieno[2,3-b]quinoline-2-carbonitrile] | 100 to 1000 nM
33 | CCC1CCc2nc3sc(C#N)c(N)c3cc2C1 (stereo not shown) [Example 17] | 1000 to 10000 nM
34 | N#Cc1sc2nc3c(cc2c1N)CN(CC1CC1)CC3 [Example 55] | > 10000 nM
35 | C[C@H](NC(=O)c1cc2cc3c(nc2s1)CCC(C(C)(C)C)C3)C(=N)N (stereo partly shown) [Example 169] | < 100 nM
36 | CC(C)[C@H](NC(=O)c1cc2cc3c(nc2s1)CCC(C(C)(C)C)C3)C(=N)N (stereo partly shown) [Example 171] | 1000 to 10000 nM
37 | C/C=C/C=C1\CCc2nc3sc(C#N)c(N)c3cc2C1 [Example 35] | > 10000 nM
38 | CC(C)C1Cc2cc3c(N)c(C#N)sc3nc2CC1C (stereo not shown) [Example 207, 3-Amino-6-isopropyl-7-methyl-5,6,7,8-tetrahydro-thieno[2,3-b]quinoline-2-carbonitrile] | > 10000 nM
39 | CC(C)(C)[C@@H]1CCc2nc3sc(C(=O)N[C@H](CN)c4cccc(NC(=O)c5ncc[nH]5)c4)cc3cc2C1 [Example 247] | < 100 nM
40 | Cn1cc(C(=O)Nc2cccc([C@@H](CN)NC(=O)c3cc4cc5c(nc4s3)CC[C@@H](C(C)(C)C)C5)c2)cn1 [Example 240] | < 100 nM
41 | CC(C)(C)C1CCc2nc3sc(C(=O)NCCCN)cc3cc2C1 (stereo not shown) [Example 101] | 100 to 1000 nM
42 | CCC(C)(C)C1CCc2nc3sc(C(N)=O)cc3c(O)c2C1 (stereo not shown) [Example 116] | > 10000 nM
43 | CC(C)(C)C1CCc2nc3sc(C(=O)N[C@H](CN)c4ccc(N)cc4)cc3cc2C1 (stereo partly shown) [Example 218] | < 100 nM

Row | SMILES | IC50
44 | CCCC1CCCc2cc3c(N)c(C#N)sc3nc21 (stereo not shown) [Example 52] | > 10000 nM
45 | C[C@H]1CN(C(=O)Nc2cccc([C@@H](CN)NC(=O)c3cc4cc5c(nc4s3)CC[C@@H](C(C)(C)C)C5)c2)CCN1 [Example 280] | 100 to 1000 nM
46 | C[C@H]1CNCCN1C(=O)Nc1cccc([C@@H](CN)NC(=O)c2cc3cc4c(nc3s2)CC[C@@H](C(C)(C)C)C4)c1 [Example 276] | < 100 nM
47 | COC(=O)[C@H]1CCCCN1C(=O)c1cc2cc3c(nc2s1)CCC(C(C)(C)C)C3 (stereo partly shown) [Example 90] | > 10000 nM
48 | CC(=O)NCc1cc2cc3c(nc2s1)CCC(C(C)(C)C)C3 (stereo not shown) [Example 154] | 1000 to 10000 nM
49 | N#Cc1sc2nc3c(cc2c1N)CC(C(F)(F)F)CC3 (stereo not shown) [Example 14] | 1000 to 10000 nM
50 | Cc1nnsc1C(=O)Nc1cccc([C@@H](CN)NC(=O)c2cc3cc4c(nc3s2)CC[C@@H](C(C)(C)C)C4)c1 [Example 258] | < 100 nM
51 | CC(C)(C)[C@@H]1CCc2nc3sc(C(=O)N[C@H](CN)c4cccc(NC(=O)c5csnn5)c4)cc3cc2C1 [Example 257] | < 100 nM
52 | CC(C)[C@@H](C#N)NC(=O)c1cc2cc3c(nc2s1)CCC(C(C)(C)C)C3 (stereo partly drawn) [Example 162, 6-tert-Butyl-5,6,7,8-tetrahydrothieno[2,3-b]quinoline-2-carboxylic acid [(1S)-1-cyano-2-methylpropyl]amide] | > 10000 nM
53 | CNCc1cc2cc3c(nc2s1)CCC(C(C)(C)C)C3 (stereo not shown) [Example 151] | 1000 to 10000 nM
54 | CC(C)C(C)C1CCc2nc3sc(C#N)c(N)c3cc2C1 (stereo not shown) [Example 30] | 100 to 1000 nM
55 | CC(CO)NC(=O)c1cc2cc3c(nc2s1)CCC(C(C)(C)C)C3 (stereo not shown) [Example 76] | 1000 to 10000 nM
56 | CC1(C)Cc2nc3sc(C#N)c(N)c3cc2C(C)(C)C1 [Example 48] | > 10000 nM
57 | CC(C)(C)C1CCc2nc3sc(-c4ncc(CN)[nH]4)cc3cc2C1 (stereo not shown) [Example 184, [2-(6-tert-Butyl-5,6,7,8-tetrahydrothieno[2,3-b]quinolin-2-yl)-3H-imidazol-4-yl]methylamine] | 100 to 1000 nM
58 | CC(C)(C)[C@@H]1CCc2nc3sc(C(=O)N[C@H](CN)c4cccc(NC(=O)c5cn[nH]c5)c4)cc3cc2C1 [Example 237] | < 100 nM
59 | CC(C)(C)C1CCc2nc3sc(C(=O)NC(CN)c4ccccc4)cc3cc2C1 (stereo not shown) [Example 178] | < 100 nM
60 | CN1CCN(C(=O)c2cc3cc4c(nc3s2)CCC(C(C)(C)C)C4)CC1 (stereo not shown) [Example 97] | > 10000 nM
61 | CC(C)(C)C1CCc2nc3sc(C(=O)NCCN4CCCCC4)cc3cc2C1 (stereo not shown) [Example 198, 6-(1,1-Dimethylethyl)-5,6,7,8-Tetrahydro-N-[2-(1-Piperidinyl)ethyl]thieno[2,3-b]quinoline-2-Carboxamide] | 1000 to 10000 nM

same assay, conditions: exact IC50 values, end-point assay (Table 2); read-out: IC50

Row | SMILES | IC50
62 | CCC(CN)NC(=O)c1cc2cc3c(nc2s1)CCC(C(C)(C)C)C3 (stereo not shown) [Example 177] | 65 nM
63 | CCC(C)(C)C1CCc2nc3sc(C#N)cc3cc2C1 (stereo not shown) [Example 59] | 55 nM
64 | Cc1cnc(C(=O)Nc2cccc([C@@H](CN)NC(=O)c3cc4cc5c(nc4s3)CC[C@@H](C(C)(C)C)C5)c2)cn1 [Example 259] | 17 nM
65 | CC(C)(C)[C@@H]1CCc2nc3sc(C(=O)N[C@H](CN)c4cccc(NC(=O)c5csnn5)c4)cc3cc2C1 [Example 257] | 23 nM
66 | CC(C)(C)[C@@H]1CCc2nc3sc(C(=O)N[C@H](CN)c4cccc(NC(=O)c5cn[nH]c5)c4)cc3cc2C1 [Example 237] | 10 nM
67 | CC(C)(C)C1CCc2nc3sc(C(=O)NC(CN)c4ccccc4)cc3cc2C1 (stereo not shown) [Example 178] | 25 nM
